Test [1] deals with CTGF production. The test can be described thus: Inhibition of TGF-induced CTGF production in human mesangial cells (ELISA). Type of test: cell-based. To be noted: FIG. 2. The procedure:
(§1) The effect of selected compounds on CTGF production was undertaken in normal human dermal fibroblast (NHDF) or human mesangial cells. Cells were cultured in DMEM (0.5% FBS) with or without 10 ng/mL of TGF-β for 48 h in a humidified atmosphere of 95% air-5% carbon dioxide at 37° C. CTGF measurement in the culture medium was measured using the CTGF ELISA according to the manufacturer (Prepotech) recommendations.
Background: In an ELISA, binding on a coated surface is turned into a signal by an enzyme label.

The test system of the next test is HK-2 cells. The test can be described thus: TGF-β induced epithelial to mesenchymal transition in HK-2 cells (real-time PCR of E-cadherin, CTGF, collagen 1). In kind it is cell-based, human. Particulars: sodium decanoate and Compound I at 0.5 mM; for TGF-β induced EMT: HK-2 cells; for CTGF transcript expression / collagen 1 transcript expression: TGF-β-stimulated cells, 24 h, normalized to GAPDH; for basal expression of CTGF / basal expression of collagen 1: compound alone, no TGF-β. The procedure: FIG. 20 is a bar graph showing the effect of Compound XVII on E-cadherin in normal HK-2 cells and in TGF-β induced EMT cells. Real-time PCR using human E-cadherin TaqMan® Gene Expression Assay normalized to human GAPDH endogenous control; reference is […] cells 24 h (RQ=1). *means p<0.05, and ** means p<0.01 (t-test).
FIG. 21 is a bar graph showing the effect of Compound XVII on CTGF in normal HK-2 cells and in TGF-β induced EMT cells. Real-time PCR using human CTGH TaqMan® Gene Expression Assay normalized to human GAPDH endogenous control; reference is TGF-β-treated cells 24 h (RQ=1). *means p<0.05, and ** means p<0.01 (t-test).
FIG. 22 is a bar graph showing the effect of Compound XVII on collagen 1 in normal HK-2 cells and in TGF-β induced EMT cells. Real-time PCR using human Collagen 1 TaqMan® Gene Expression Assay normalized to human GAPDH endogenous control; reference is TGF-β-treated cells 24 h (RQ=1). ** means p<0.01 (t-test).
Real-time PCR using human CTGF TaqMan® Gene Expression Assay and Collagen 1 TaqMan® Gene Expression Assay normalized to human GAPDH endogenous control; reference is TGF-β-treated cells 24 h (RQ=1).
FIG. 24 is a bar graph showing the effect of Compound I on CTGF and collagen 1 expression in normal HK-2 cells and in TGF-β induced EMT cells. Real-time PCR using human CTGF TaqMan® Gene Expression Assay and Collagen 1α1 TaqMan® Gene Expression Assay normalized to human GAPDH endogenous control; reference is TGF-β-treated cells 24 h (RQ=1). Compound I is added at 0.5 mM.
Further analysis was undertaken to determine the effect of Compoounds on EMT. The effect of Compound XVII on TGF-β induced EMT was analyzed on human epithelial […] cells (HK-2). To assess the progression of EMT, the pro-epithelial marker E-cadherin and the mesenchymal/pro-fibrotic markers CTGF and collagen 1 were assayed by quantitative real-time PCR. To determine the efficacy of Compound XVII in inhibiting TGF-β-induced EMT, verification of the ability of TGF-β to induce EMT in HK-2 cells.
In general terms: In qPCR the cycle at which signal appears reflects the starting amount.

For test [2], the system named is CTGF production. Kind of test: Inhibition of TGF-induced CTGF production in NHDF (ELISA). In kind it is cell-based. Particulars: Homo sapiens, 10 ng/mL TGF-β, 48 h. The procedure:
as §1

The subject of another test is P815 mastocytoma. Kind of test: Primary P815 mastocytoma tumor growth in mice. Type of test: in vivo. The source says:
The syngeneic tumor P815 is a DBA/2 (H-2^d)-derived mastocytoma obtained from ATCC (TIB64). […] Mice were sacrificed around day 23 (depending on the experiment). […] Tumors were palpable, in general, 3-5 days post-inoculation.

In a further test the test system is IL-12 production. The test can be described thus: IL-12 production in LPS-stimulated RAW264.7 cells (ELISA). Particulars: compound 0.5 mM; 100 ng/mL LPS, 21 h. In kind it is cell-based. As for the experimental part:
The effect of selected compounds on IL-12 production was undertaken in RAW264.7 (macrophage-like) cells. RAW264.7 cells were cultured with 100 ng/mL of LPS in presence or absence of compounds for 21 h in a humidified atmosphere of 95% air-5% carbon dioxide at 37° C. IL-12 concentration in the culture medium was measured using the IL-12 ELISA according to the manufacturer (BD Biosciences) recommendations. […] Compounds have no effect on IL-12 production in the absence of LPS.

Test [3] deals with human prostate PC-3 tumor. The test can be described thus: Xenograft human prostate PC-3 tumor in mice. To be noted: cyclophosphamide alone; p≦0.05; FIG. 15. In kind it is in vivo. The procedure: The xenogenic human prostate tumor PC-3 was obtained from ATCC (CRL1435). PC-3 cells were grown in RPMI-1640 containing 10% fetal bovine serum. At day 0, 50 μL of viable PC-3 (1.5 to 2×10^6) cells were subcutaneously injected to produce localized tumors in 6- to 8-week old male CD1 nu/nu mice. The animals were then serially monitored by manual palpation for evidence of tumor. […] Mice were sacrificed at day 56. Serial tumor volume was obtained by bi-dimensional diameter measurements with calipers, using the formula 0.4 (a×b^2) where “a” was the major tumor diameter and “b” the minor perpendicular diameter.
Background: A xenograft is tissue or cells of one species grown in another, often human tumour cells in immunodeficient mice.

In another test the test system is Panc02 pancreatic cancer. The test can be described thus: Subcutaneous Panc02 pancreatic tumor growth. In kind it is in vivo, mice. Particulars: from day 34-39; oral; p<0.05; FIG. 16.
In a further test the test system is LL/2 lung tumor. The test can be described thus: LL/2 lung tumor in mice. In kind it is in vivo. Particulars: sodium decanoate oral 200 mg/kg daily; gemcitabine i.p. 50 mg/kg day 1, 8, 15, 22; FIG. 11. The source says:
The syngeneic tumor LL/2 is a lung tumor cell line obtained from ATCC (CRL-1642). […] Mice were sacrificed at day 26. […] Tumors were palpable, in general, 3-5 days post-inoculation.

The test system of the next test is CT-26WT colon tumor. Kind of test: Primary colon CT-26WT tumor in mice. Type of test: in vivo. To be noted: sodium decanoate oral 200 mg/kg daily; 5-fluorouracil i.p. 40 mg/kg day 6, 13, 20; Compound XV oral; FIG. 12 and 13. As for the experimental part:
The syngeneic tumor CT-26WT (CT-26) is a colon tumor cell line obtained from ATCC (CRL-2638). CT-26 cells were grown in RPMI containing 10% fetal bovine serum. At day 0, 50 μL of 5×10^6 viable CT-26 cells were subcutaneously injected to produce localized tumors in 6- to 8-week old mice. The animals were then serially monitored by manual palpation for evidence of tumor. […] Mice were sacrificed at day 25. Serial tumor volume was obtained by bi-dimensional diameter measurements with calipers, using the formula 0.4 (a×b^2) where “a” was the major tumor diameter and “b” the minor perpendicular diameter. Tumors were palpable, in general, 3-5 days post-inoculation.

A further test relates to P815 liver metastasis. Kind of test: P815 liver metastasis in mice. In kind it is in vivo. Particulars: oral 200 mg/kg; p<0.05; FIG. 9 and 10. The procedure: The syngeneic tumor P815 is a DBA/2 (H-2^d)-derived mastocytoma obtained from ATCC (TIB64). P815 cells were grown in DMEM containing 10% fetal bovine serum. At day 0, 50 μL of 5×10^5 viable P815 cells were subcutaneously injected to produce localized tumors in 6- to 8-week old DBA/2 mice. The animals were then serially monitored by manual palpation for evidence of tumor. […] Mice were sacrificed around day 23 (depending on the experiment). Serial tumor volume was obtained by bi-dimensional diameter measurements with calipers, using the formula 0.4 (a×b^2) where “a” was the major tumor diameter and “b” the minor perpendicular diameter. Tumors were palpable, in general, 3-5 days post-inoculation.
It is known that P815 cells have the capacity to metastasize to the liver.

A further test concerns B16F10 melanoma cells. The test can be described thus: Primary B16F10 melanoma tumor in mice. To be noted: C57BL/6 mice; sodium decanoate 100 mg/kg oral daily, doxorubicin 5 mg/kg (subtherapeutic dose); FIG. 3. Type of test: in vivo. The procedure: Female 6-8 week old C57BL/6 mice were injected subcutaneously on day 0 with 50 μL of 3.75×10^4 viable B16F10 melanoma cells from ATCC (source of cell culture, Dr. I. J. Fidler). On day 14, tumors reached […] and animals were randomized for treatment. […] Mice were sacrificed on day 12.

Test [4] concerns Panc02 pancreatic adenocarcinoma. Kind of test: Orthotopic Panc02 pancreatic cancer model, survival. In kind it is in vivo. Particulars: C57BL/6 mice; gemcitabine i.p. 50 mg/kg once a week, Compound XV oral 200 mg/kg daily; control 50 days; FIG. 4. As for the experimental part:
Syngeneic Panc02 is a pancreatic adenocarcinoma tumor cell line obtained from NCI (0507232). Panc02 cells are positive for Ki-Ras, p53, HerNEU and CDK. Panc02 were grown in RPMI-1640 containing 10% fetal bovine serum. At day 0, 50 μL of 5×10^5 viable Panc02 cells were injected into the tail of the pancreas in 6- to 8-week old C57BL/6 mice. Mice were then treated every day with oral administration of vehicle (saline, negative control), or Compound XV and with intraperitoneal injection of gemcitabine (50 mg/kg) once a week starting at day 8.

Usually inhibition stands for the percentage by which the read-out fell short of the control. A high value points to strong suppression. For `CCCCCc1cccc(CC(=O)[O-])c1.[Na+]` [Compound I, Sodium Salt of (3-pentylphenyl)Acetic Acid], in the test on CTGF production [1], the “inhibition of TGF-induced CTGF production” value is reported as “significant (p<0.05) inhibition”. In the test on HK-2 cells, the “TGF-β induced EMT” value is “significant inhibition”, the CTGF transcript expression entry is given as “reduction”, the “collagen 1 transcript expression” value is recorded as “reduction” and the “basal expression of CTGF” value was “reduction”. Also, the “basal expression of collagen 1” value with HK-2 cells is reported as “reduction”. Besides, testing at 200 µM in the test with CTGF production [2] (200 μM) gave an inhibition of 54%. Besides, the P815 tumor growth entry in the test with P815 mastocytoma (oral 200 mg/kg, FIG. 7 and 8) is reported as “significant reduction (p<0.05)”. In the test on IL-12 production, the “IL-12” value is reported as 54 pg/mL.

On to `O=P1(N(CCCl)CCCl)NCCCO1` (stereo not drawn) [Cyclophosphamide, cyclophosphamide], for which the “tumor growth T/C” value in test [3] is recorded as 42-78%.

`CCCCCCCCCC(=O)[O-].[Na+]` [Sodium decanoate]: the “tumor growth Treated/Control (T/C)” value with Panc02 pancreatic cancer is listed as 60-70%. In addition, in the test with HK-2 cells, the “TGF-β induced EMT” value is recorded as “significant inhibition”, the CTGF transcript expression entry was “reduction”, the “collagen 1 transcript expression” value is recorded as “reduction” and the “basal expression of CTGF” value is “reduction”. Also, in the test with HK-2 cells, the “basal expression of collagen 1” value was “reduction”. The “efficacy on primary tumor LL/2 (single agent)” value with LL/2 lung tumor is on record as “weak efficacy”. For the same compound, in the test on CTGF production [2] (500 μM), testing at 500 µM gave an inhibition of 51%. In addition, the “efficacy on primary tumor CT-26 (single agent)” value in the test with CT-26WT colon tumor is “weak efficacy”. Also, the P815 tumor growth result in the test with P815 mastocytoma (DBA/2 mice, oral 40-200 mg/kg every day, FIG. 6) is given as “significant reduction (p<0.05)”. The P815 tumor growth entry with P815 mastocytoma (oral 200 mg/kg, FIG. 7 and 8) is “significant reduction (p<0.05)”. In addition, the “reduction of mice with liver metastasis” value in the test with P815 liver metastasis stood at 50%. In addition, the “IL-12” value in the test on IL-12 production is given as 50 pg/mL. Further, the “reduction of primary tumor volume compared to the control” value in the test on B16F10 melanoma cells is reported as “around 25%”.

For the compound `COc1cccc2c1C(=O)c1c(O)c3c(c(O)c1C2=O)C[C@@](O)(C(=O)CO)C[C@@H]3O[C@H]1C[C@H](N)[C@H](O)[C@H](C)O1` [doxorubicin, reference compound], the “reduction of primary tumor volume compared to the control” value in the test on B16F10 melanoma cells is given as “around 25%”.

`Nc1ccn([C@@H]2O[C@H](CO)[C@@H](O)C2(F)F)c(=O)n1` [gemcitabine, reference compound]: the median survival in test [4] amounted to 68.5 days. In the test with LL/2 lung tumor, the “efficacy on primary tumor LL/2 (single agent)” value was “weak efficacy”.

The values are drawn from US9439882B2, “Compounds and compositions for the treatment of cancer” (PROMETIC BIOSCIENCES, INC., priority 2010, dated 2016).
